Assay results published in PubChem BioAssay AID248 (DTP/NCI, 2004).
Where “and” joins values, the source holds several entries; their conditions need not be identical. Equal entries are not always repeated. Toxic doses and inconclusive results are not listed.

System: L1210 leukemia ip in BDF1 mice, survival T/C
Assay: NCI In Vivo Anticancer Drug Screen. Data for tumor model L1210 Leukemia (intraperitoneal) in B6D2F1 (BDF1) mice
Conditions: endpoint: mean survival time, higher = longer survival
Outline: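 Ratio derived from survival: compound-dosed mice over vehicle-dosed mice, all bearing a transplantable tumor.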

[1] = dose: 100.0 mg/kg/injection, schedule: Q01DX001 (ip), vehicle: saline with Tween-80
[2] = dose: 200.0 mg/kg/injection, schedule: Q01DX001 (ip), vehicle: saline with Tween-80
[3] = dose: 400.0 mg/kg/injection, schedule: Q01DX001 (ip), vehicle: saline with Tween-80
[4] = dose: 100.0 mg/kg/injection, schedule: Q01DX001 (ip), vehicle: saline
[5] = dose: 200.0 mg/kg/injection, schedule: Q01DX001 (ip), vehicle: saline
[6] = dose: 400.0 mg/kg/injection, schedule: Q01DX001 (ip), vehicle: saline
[7] = dose: 100.0 mg/kg/injection, schedule: Q01DX009 (ip), vehicle: saline
[8] = dose: 100.0 mg/kg/injection, schedule: Q04DX003 (ip), vehicle: saline
[9] = dose: 200.0 mg/kg/injection, schedule: Q01DX009 (ip), vehicle: saline
[10] = dose: 200.0 mg/kg/injection, schedule: Q04DX003 (ip), vehicle: saline
[11] = dose: 400.0 mg/kg/injection, schedule: Q04DX003 (ip), vehicle: saline
[12] = dose: 100.0 mg/kg/injection, schedule: Q04DX003 (ip), vehicle: other
[13] = dose: 200.0 mg/kg/injection, schedule: Q04DX003 (ip), vehicle: other
[14] = dose: 400.0 mg/kg/injection, schedule: Q04DX003 (ip), vehicle: other
[15] = dose: 100.0 mg/kg/injection, schedule: Q01DX009 (ip), vehicle: Klucel (hydroxypropylcellulose) (HPC)
[16] = dose: 200.0 mg/kg/injection, schedule: Q01DX009 (ip), vehicle: Klucel (hydroxypropylcellulose) (HPC)
[17] = dose: 400.0 mg/kg/injection, schedule: Q01DX009 (ip), vehicle: Klucel (hydroxypropylcellulose) (HPC)
[18] = dose: 100.0 mg/kg/injection, schedule: Q04DX002 (ip), vehicle: saline with Tween-80
[19] = dose: 200.0 mg/kg/injection, schedule: Q04DX002 (ip), vehicle: saline with Tween-80
[20] = dose: 100.0 mg/kg/injection, schedule: Q04DX003 (ip), vehicle: Klucel (hydroxypropylcellulose) (HPC)
[21] = dose: 200.0 mg/kg/injection, schedule: Q04DX003 (ip), vehicle: Klucel (hydroxypropylcellulose) (HPC)
[22] = dose: 400.0 mg/kg/injection, schedule: Q04DX003 (ip), vehicle: Klucel (hydroxypropylcellulose) (HPC)
[23] = dose: 50.0 mg/kg/injection, schedule: Q01DX001 (ip), vehicle: saline
[24] = dose: 100.0 mg/kg/injection, schedule: Q01DX009 (ip), vehicle: saline with Tween-80
[25] = dose: 200.0 mg/kg/injection, schedule: Q01DX009 (ip), vehicle: saline with Tween-80
[26] = dose: 400.0 mg/kg/injection, schedule: Q01DX009 (ip), vehicle: saline with Tween-80
[27] = dose: 400.0 mg/kg/injection, schedule: Q04DX002 (ip), vehicle: saline with Tween-80

Compound: Cc1ccc([N+](=O)[O-])c2ccccc12
- T/C [1]: 103 % of control
- T/C [2]: 97 % of control
- T/C [3]: 97 % of control

Compound: Clc1ccc(C2=CC(c3ccccc3)C3CC23)cc1 (stereo not given)
- T/C [1]: 92 % of control
- T/C [2]: 94 % of control
- T/C [3]: 89 % of control

Compound: Nc1ccc2ncnn2c1
- T/C [4]: 103 % of control
- T/C [5]: 106 % of control
- T/C [6]: 101 % of control

Compound: CCOC(=O)c1csc(CCNC(=O)c2ccccc2)n1
- T/C [4]: 99 % of control
- T/C [7]: 108 % of control
- T/C [8]: 96 % of control
- T/C [5]: 102 % of control
- T/C [9]: 97 % of control
- T/C [10]: 98 % of control
- T/C [6]: 96 % of control
- T/C (dose: 400.0 mg/kg/injection, schedule: Q01DX009 (ip), vehicle: saline): 100 % of control
- T/C [11]: 95 % of control

Compound: Cc1ccc(S(=O)(=O)OCC2CC3CCC2C3)cc1 (stereo not given)
- T/C [12]: 91 % of control
- T/C [13]: 94 % of control
- T/C [14]: 98 % of control

Compound: Cc1ccc(NC(=O)C(=O)Nc2ccc(C)cc2)cc1
- T/C [15]: 90 % of control
- T/C [12]: 93 % of control
- T/C [16]: 89 % of control
- T/C [13]: 92 % of control
- T/C [17]: 90 % of control
- T/C [14]: 89 % of control

Compound: COC1OC2COc3ccccc3OC2C2C1N2C(C)=O (stereo not given)
- T/C (dose: 100.0 mg/kg/injection, schedule: Q04DX002 (ip), vehicle: Klucel (hydroxypropylcellulose) (HPC)): 113 % of control
- T/C (dose: 200.0 mg/kg/injection, schedule: Q04DX002 (ip), vehicle: Klucel (hydroxypropylcellulose) (HPC)): 98 % of control

Compound: CN(C)c1ccc([N+](=O)[O-])cn1
- T/C [18]: 97 % of control
- T/C [19]: 97 % of control

Compound: C[n+]1ccc(/C=C/C(=O)Nc2ccccc2)cc1
- T/C [20]: 104 % of control
- T/C [21]: 108 % of control
- T/C [22]: 98 % of control

Compound: CC(O)(CC(=O)O)c1ccc([N+](=O)[O-])cc1 (stereo not given)
- T/C [23]: 96 % of control
- T/C [4]: 102 % of control
- T/C [5]: 108 % of control
- T/C [6]: 102 % of control

Compound: COC1CCCNC1CC(=O)Cn1cnc2cc3c(cc2c1=O)OCO3 (stereo not given)
- T/C (dose: 18.75 mg/kg/injection, schedule: Q01DX009 (ip), vehicle: saline): 92 % of control
- T/C (dose: 37.5 mg/kg/injection, schedule: Q01DX009 (ip), vehicle: saline): 111 % of control
- T/C (dose: 37.5 mg/kg/injection, schedule: Q04DX003 (ip), vehicle: saline): 98 % of control
- T/C (dose: 75.0 mg/kg/injection, schedule: Q01DX001 (ip), vehicle: saline): 101 % of control
- T/C (dose: 75.0 mg/kg/injection, schedule: Q01DX009 (ip), vehicle: saline): 93 % of control
- T/C (dose: 75.0 mg/kg/injection, schedule: Q04DX003 (ip), vehicle: saline): 104 % of control
- T/C (dose: 150.0 mg/kg/injection, schedule: Q01DX001 (ip), vehicle: saline): 107 % of control
- T/C (dose: 150.0 mg/kg/injection, schedule: Q04DX003 (ip), vehicle: saline): 100 % of control

Compound: CS(=O)(=O)OCCN(CCOS(C)(=O)=O)c1ccc(C=Nc2ccc(C(=O)O)cc2)cc1
- T/C (dose: 2.5 mg/kg/injection, schedule: Q04DX003 (ip), vehicle: Klucel (hydroxypropylcellulose) (HPC)): 114 % of control
- T/C (dose: 20.0 mg/kg/injection, schedule: Q04DX003 (ip), vehicle: Klucel (hydroxypropylcellulose) (HPC)): 170 % of control
- T/C (dose: 40.0 mg/kg/injection, schedule: Q04DX003 (ip), vehicle: Klucel (hydroxypropylcellulose) (HPC)): 112 % of control

Compound: CC1CN=C(c2ccc(O)cc2)S1 (stereo not given)
- T/C (dose: 50.0 mg/kg/injection, schedule: Q01DX009 (ip), vehicle: saline): 102 % of control
- T/C (dose: 100.0 mg/kg/injection, schedule: Q01DX005 (ip), vehicle: saline): 104 % of control
- T/C [7]: 106 % of control
- T/C (dose: 100.0 mg/kg/injection, schedule: Q04DX002 (ip), vehicle: saline): 96 % of control
- T/C (dose: 200.0 mg/kg/injection, schedule: Q01DX005 (ip), vehicle: saline): 104 % of control
- T/C [9]: 102 % of control
- T/C (dose: 200.0 mg/kg/injection, schedule: Q04DX002 (ip), vehicle: saline): 104 % of control
- T/C (dose: 400.0 mg/kg/injection, schedule: Q04DX002 (ip), vehicle: saline): 107 % of control

Compound: OC1OC(CCl)C(Cl)C(O)C1O (stereo not given)
- T/C [8]: 106 % of control
- T/C [10]: 101 % of control
- T/C [11]: 98 % of control

Compound: Brc1ccc2[nH]cc(/C=N/Nc3nnc(N/N=C/c4c[nH]c5ccc(Br)cc45)c4ccccc34)c2c1
- T/C [23]: 101 % of control

Compound: CC(Cc1ccccc1)NC1=NCCO1 (stereo not given)
- T/C [24]: 91 % of control
- T/C [25]: 91 % of control
- T/C [26]: 89 % of control

Compound: CCOC(=O)c1ccc(F)cc1
- T/C [18]: 101 % of control
- T/C [19]: 115 % of control
- T/C [27]: 104 % of control

Compound: O=C(COc1ccc(Cl)cc1Cl)Nc1ccccc1F
- T/C (dose: 50.0 mg/kg/injection, schedule: Q01DX009 (ip), vehicle: saline with Tween-80): 92 % of control
- T/C [24]: 98 % of control and 87 % of control
- T/C [25]: 89 % of control
- T/C [26]: 95 % of control

Compound: COc1cc2ccc3c4cc5c(cc4cnc3c2cc1OC)OCO5
- T/C [24]: 102 % of control
- T/C (dose: 100.0 mg/kg/injection, schedule: Q04DX003 (ip), vehicle: saline with Tween-80): 89 % of control
- T/C [25]: 98 % of control
- T/C (dose: 200.0 mg/kg/injection, schedule: Q04DX003 (ip), vehicle: saline with Tween-80): 87 % of control
- T/C [26]: 106 % of control
- T/C (dose: 400.0 mg/kg/injection, schedule: Q04DX003 (ip), vehicle: saline with Tween-80): 89 % of control

Compound: CC(C(O)c1ccccc1)C(O)(C(F)(F)Cl)C(F)(F)Cl (stereo not given)
- T/C (dose: 100.0 mg/kg/injection, schedule: Q01DX001 (ip), vehicle: Klucel (hydroxypropylcellulose) (HPC)): 102 % of control
- T/C [20]: 98 % of control
- T/C (dose: 200.0 mg/kg/injection, schedule: Q01DX001 (ip), vehicle: Klucel (hydroxypropylcellulose) (HPC)): 102 % of control
- T/C [21]: 88 % of control
- T/C (dose: 400.0 mg/kg/injection, schedule: Q01DX001 (ip), vehicle: Klucel (hydroxypropylcellulose) (HPC)): 107 % of control
- T/C [22]: 114 % of control

Compound: O=C(O)C(O)C(O)C(O)C(O)CO.O=C(O)C(O)C(O)C(O)C(O)CO.O=C(O)C(O)C(O)C(O)C(O)CO.[Ga] (stereo not given)
- T/C [23]: 101 % of control
- T/C [4]: 103 % of control
- T/C [5]: 112 % of control
- T/C [6]: 100 % of control

Compound: CC[N+](C)(CC)c1ccc(/C=N\N(C)C)cc1
- T/C (dose: 6.25 mg/kg/injection, schedule: Q01DX009 (ip), vehicle: Klucel (hydroxypropylcellulose) (HPC)): 96 % of control
- T/C (dose: 12.5 mg/kg/injection, schedule: Q01DX009 (ip), vehicle: Klucel (hydroxypropylcellulose) (HPC)): 108 % of control
- T/C (dose: 25.0 mg/kg/injection, schedule: Q01DX009 (ip), vehicle: Klucel (hydroxypropylcellulose) (HPC)): 86 % of control

Compound: CN(C)C(SCc1c(Cl)c(Cl)c(Cl)c(Cl)c1Cl)=[N+](C)C
- T/C (dose: 3.0 mg/kg/injection, schedule: Q04DX002 (ip), vehicle: saline): 101 % of control
- T/C (dose: 6.0 mg/kg/injection, schedule: Q04DX002 (ip), vehicle: saline): 93 % of control
- T/C (dose: 12.0 mg/kg/injection, schedule: Q04DX002 (ip), vehicle: saline): 104 % of control

Compound: Brc1c(-c2ccccc2)cc(-c2ccccc2)cc1-c1ccccc1
- T/C [15]: 93 % of control
- T/C [20]: 91 % of control
- T/C [16]: 93 % of control
- T/C [21]: 93 % of control
- T/C [17]: 96 % of control
- T/C [22]: 91 % of control

Compound: O=C1c2cccc(S(=O)(=O)O)c2C(=O)c2cccc([N+](=O)[O-])c21
- T/C [20]: 98 % of control
- T/C [21]: 91 % of control
- T/C [22]: 94 % of control

Compound: CC(C)(C)c1cc(C#N)cc(Br)c1OP(=O)(Oc1c(Br)cc(C#N)cc1C(C)(C)C)c1ccccc1
- T/C [18]: 95 % of control
- T/C [19]: 92 % of control
- T/C [27]: 97 % of control
